Among the data in PubChem BioAssay AID330 (DTP/NCI, 2004) are T/C values, retold here.

Values joined by “and” are separate entries in the source; they are usually repeats but may differ in a detail not shown here. Identical values can stand only once. Inconclusive results and toxic doses are left out.

This experiment concerns P388 leukemia ip, CD2F1 mice, survival T/C. The experiment can be described thus: NCI In Vivo Anticancer Drug Screen. Data for tumor model P388 Leukemia (intraperitoneal) in CD2F1 (CDF1) mice. As to conditions: endpoint: median survival time, higher = longer survival. The method in brief: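 Mice carrying the transplanted tumor received test compound or vehicle. Survival was recorded in each group, and the value is the treated-group measurement divided by that of the vehicle-treated control group.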

Setting [1] is: dose: 50.0 mg/kg/injection, schedule: Q01DX009 (ip), vehicle: saline with Tween-80.
[2] abbreviates: dose: 100.0 mg/kg/injection, schedule: Q01DX009 (ip), vehicle: saline with Tween-80.
Where [3] appears, read: dose: 200.0 mg/kg/injection, schedule: Q01DX009 (ip), vehicle: saline with Tween-80.
The mark [4] stands for this setting: dose: 60.0 mg/kg/injection, schedule: Q01DX005 (ip), vehicle: saline with Tween-80.
Where [5] appears, read: dose: 120.0 mg/kg/injection, schedule: Q01DX005 (ip), vehicle: saline with Tween-80.
The mark [6] stands for this setting: dose: 240.0 mg/kg/injection, schedule: Q01DX005 (ip), vehicle: saline with Tween-80.
Setting [7] is: dose: 50.0 mg/kg/injection, schedule: Q01DX005 (ip), vehicle: saline with Tween-80.
[8] abbreviates: dose: 100.0 mg/kg/injection, schedule: Q01DX005 (ip), vehicle: saline with Tween-80.
Where [9] appears, read: dose: 200.0 mg/kg/injection, schedule: Q01DX005 (ip), vehicle: saline with Tween-80.
[10] abbreviates: dose: 6.25 mg/kg/injection, schedule: Q01DX009 (ip), vehicle: saline with Tween-80.
[11] abbreviates: dose: 12.5 mg/kg/injection, schedule: Q01DX009 (ip), vehicle: saline with Tween-80.
Where [12] appears, read: dose: 25.0 mg/kg/injection, schedule: Q01DX009 (ip), vehicle: saline with Tween-80.
[13] abbreviates: dose: 50.0 mg/kg/injection, schedule: Q01DX005 (ip), vehicle: Klucel (hydroxypropylcellulose) (HPC).
The mark [14] stands for this setting: dose: 100.0 mg/kg/injection, schedule: Q01DX005 (ip), vehicle: Klucel (hydroxypropylcellulose) (HPC).
The mark [15] stands for this setting: dose: 200.0 mg/kg/injection, schedule: Q01DX005 (ip), vehicle: Klucel (hydroxypropylcellulose) (HPC).

As for `Cc1ncc(CO)n1C`, the T/C reads like this: under setting [1], 104 % of control; under setting [2], 101 % of control; under setting [3], 101 % of control; (dose: 400.0 mg/kg/injection, schedule: Q01DX009 (ip), vehicle: saline with Tween-80) 113 % of control.

For `O=NN(CCF)C(=O)NC1CCS(=O)(=O)CC1`, the T/C (dose: 1.25 mg/kg/injection, schedule: Q04DX003 (ip), vehicle: saline) was 177 % of control; the T/C (dose: 2.5 mg/kg/injection, schedule: Q01DX009 (ip), vehicle: saline) is 220 % of control; the T/C (dose: 2.5 mg/kg/injection, schedule: Q04DX003 (ip), vehicle: saline) is 250 % of control; the T/C (dose: 5.0 mg/kg/injection, schedule: Q01DX009 (ip), vehicle: saline) was 300 % of control; the T/C (dose: 5.0 mg/kg/injection, schedule: Q04DX003 (ip), vehicle: saline with Tween-80) was 240 % of control; the T/C (dose: 5.0 mg/kg/injection, schedule: Q04DX003 (ip), vehicle: saline) is 272 % of control. For the same compound, the T/C was 280 % of control (dose: 6.6 mg/kg/injection, schedule: Q04DX003 (ip), vehicle: saline with Tween-80); 300 % of control (dose: 10.0 mg/kg/injection, schedule: Q01DX009 (ip), vehicle: saline); 272 % of control and 285 % of control (dose: 10.0 mg/kg/injection, schedule: Q04DX003 (ip), vehicle: saline with Tween-80); 285 % of control (dose: 15.0 mg/kg/injection, schedule: Q04DX003 (ip), vehicle: saline with Tween-80).

For the compound `Cc1cc2[nH]c3c(C#N)c(O)c(C(C)C)c(=O)n3c2cc1C`, the T/C is 103 % of control under setting [4], 100 % of control under setting [5] and 94 % of control under setting [6].

`CC(=O)OCC1OC(n2c(Br)nc3c(=O)[nH]c(N)nc32)C(OC(C)=O)C1OC(C)=O` (stereo not drawn): the T/C is 102 % of control under setting [7], 104 % of control under setting [8] and 107 % of control under setting [9].

As for `COC(=O)/C(O)=C(/O)C(=O)OC`, the T/C under setting [7] is 99 % of control, the T/C under setting [8] was 100 % of control and the T/C under setting [9] is 99 % of control.

Turning to `CC(=O)Nc1ccc(C(=O)C(C)Br)cc1` (stereo not drawn), the T/C runs as follows: under setting [10], 106 % of control and 117 % of control and 119 % of control; under setting [11], 116 % of control and 117 % of control and 124 % of control; under setting [12], 108 % of control and 119 % of control and 124 % of control.

With `O=C1C2C3C=CC(C2C(=O)N1CN1CCSCC1)C1C2C(=O)N(CN4CCSCC4)C(=O)C2C31` (stereo not drawn), the T/C is 99 % of control under setting [12]; 116 % of control and 121 % of control under setting [1]; 165 % of control under setting [2]; 166 % of control and 194 % of control under setting [3].

With `CCOC(=O)c1[nH]c(=S)n(-c2ccccc2)c1C(=O)OCC`, the T/C is 101 % of control under setting [10], 110 % of control under setting [11], 111 % of control under setting [12] and 101 % of control under setting [1].

Consider `CCOC(=O)c1ccnc2ccc3ccccc3c12`, for which the T/C by setting is: under setting [13], 105 % of control; under setting [14], 102 % of control; under setting [15], 96 % of control.

As to `COc1cc(C)c(C2NC(=O)c3ccccc3N2)cc1C` (stereo not drawn), the T/C was 104 % of control and 111 % of control under setting [13]; 103 % of control and 112 % of control under setting [14]; 109 % of control (dose: 172.0 mg/kg/injection, schedule: Q01DX005 (ip), vehicle: Klucel (hydroxypropylcellulose) (HPC)); 112 % of control and 121 % of control under setting [15]; 118 % of control (dose: 288.0 mg/kg/injection, schedule: Q01DX005 (ip), vehicle: Klucel (hydroxypropylcellulose) (HPC)); 117 % of control (dose: 800.0 mg/kg/injection, schedule: Q01DX005 (ip), vehicle: Klucel (hydroxypropylcellulose) (HPC)). Moreover, the T/C (dose: 1333.0 mg/kg/injection, schedule: Q01DX005 (ip), vehicle: Klucel (hydroxypropylcellulose) (HPC)) is 160 % of control.

As for `CN=C1NC(=O)C(C(C)c2c[nH]c3ccccc23)S1` (stereo not drawn), the T/C reads like this: (dose: 50.0 mg/kg/injection, schedule: Q01DX009 (ip), vehicle: Klucel (hydroxypropylcellulose) (HPC)) 111 % of control; (dose: 100.0 mg/kg/injection, schedule: Q01DX009 (ip), vehicle: Klucel (hydroxypropylcellulose) (HPC)) 111 % of control; (dose: 200.0 mg/kg/injection, schedule: Q01DX009 (ip), vehicle: Klucel (hydroxypropylcellulose) (HPC)) 113 % of control.

Regarding `COC(=O)C(C)NC(=O)C(CCSC)NC(=O)OC(C)(C)C` (stereo not drawn), the T/C (dose: 25.0 mg/kg/injection, schedule: Q01DX005 (ip), vehicle: Klucel (hydroxypropylcellulose) (HPC)) is 98 % of control; the T/C under setting [13] was 100 % of control and 102 % of control; the T/C under setting [14] is 95 % of control; the T/C under setting [15] was 104 % of control.

With `Cn1c(=O)c2c(ncn2CCNC(c2ccccc2)c2ccc(Br)cc2)n(C)c1=O` (stereo not drawn), the T/C was 100 % of control (dose: 6.25 mg/kg/injection, schedule: Q01DX005 (ip), vehicle: alkali diluted with saline); 96 % of control (dose: 12.5 mg/kg/injection, schedule: Q01DX005 (ip), vehicle: alkali diluted with saline); 107 % of control (dose: 25.0 mg/kg/injection, schedule: Q01DX005 (ip), vehicle: alkali diluted with saline).

For `COC(=O)C1CCC(c2ccccc2)(c2ccccc2)C1O.COC(=O)C1CCC(c2ccccc2)(c2ccccc2)C1O.[Cu]` (stereo not drawn), the T/C reads like this: (dose: 100.0 mg/kg/injection, schedule: Q01DX001 (ip), vehicle: Klucel (hydroxypropylcellulose) (HPC)) 100 % of control; (dose: 200.0 mg/kg/injection, schedule: Q01DX001 (ip), vehicle: Klucel (hydroxypropylcellulose) (HPC)) 100 % of control; (dose: 400.0 mg/kg/injection, schedule: Q01DX001 (ip), vehicle: Klucel (hydroxypropylcellulose) (HPC)) 100 % of control.

As to `[Se]=P(c1ccccc1)(N1CC1)N1CC1`, the T/C is 108 % of control (dose: 25.0 mg/kg/injection, schedule: Q04DX003 (ip), vehicle: saline with Tween-80) and 109 % of control (dose: 50.0 mg/kg/injection, schedule: Q04DX003 (ip), vehicle: saline with Tween-80).

For `CC(NNC(=S)NCc1ccccc1)c1cc2ccccc2cn1` (stereo not drawn), the T/C is 106 % of control and 113 % of control under setting [7]; 119 % of control under setting [8]; 160 % of control under setting [9].

Turning to `O=C1Cc2ccccc2C2(CCCCC2)O1`, the T/C is, setting by setting: under setting [13], 100 % of control; under setting [14], 98 % of control; under setting [15], 100 % of control.

In the case of `CC1C=Cc2ccccc2NC1C` (stereo not drawn), the T/C was 101 % of control under setting [4], 102 % of control under setting [5] and 97 % of control under setting [6].
